{"source": "patent US8314144B2", "about": "“Compounds having antitumor activity” (Defiante Farmaceutica, S.A., priority 2004, dated 2012)", "system": "human hepatocarcinoma cells (HepG2)", "test": "cells", "conditions": "HepG2, read-out: cell mortality", "experimental": "The tumor cell line HepG2 was provided by ATCC (American Type Cell Culture—Mannas, Va., No. HB-8065) and subsequently developed in our laboratory. The cells were cultured in complete medium containing MEM added with 10% FCS (bovine fetal serum), 1 mM Na-pyruvate, 2 mM L-glutamine, 0.1 mM non-essential amino acids and antibiotics (penicillin/streptomycin). The medium, culture products and reagents were purchased from Hyclone-Celbio (Milan, Italy). The experimental design provided for the use of ST1326 and of known antineoplastic drugs, such as doxorubicin, against which the HepG2 cells show a high resistance, to determine the agonist action of the compound. […] In this experiment, the following compounds were added to hemiconfluent HepG2 cells in 96 well plates: • 0.25, 0.5, 5.0 μg/mL doxorubicin; • 0.1 μM ST in combination with 0.25 μg/mL doxorubicin.\nAfter 24 hr incubation, the medium containing different concentrations of doxorubicin and the ST/doxorubicin combination was removed and the cells were washed with complete medium. After 3-day treatment, the antineoplastic effect of the test compound was determined in comparison with control cells incubated in complete medium for the same period of time.\nThe cell mortality was calculated as the percentage (mean±standard deviation) over 10.000 acquired events.", "data": [{"smiles": "COc1cccc2c1C(=O)c1c(O)c3c(c(O)c1C2=O)C[C@@](O)(C(=O)CO)C[C@@H]3O[C@H]1C[C@H](N)[C@H](O)[C@H](C)O1", "note": "[Doxorubicina, doxorubicin]", "values": [{"measurement": "mortality at 0.25 µg/mL", "result": "11.2 ± 1.5", "unit": "%"}, {"measurement": "mortality at 0.5 µg/mL", "result": "22.7 ± 3.5", "unit": "%"}, {"measurement": "mortality at 5 µg/mL", "result": "48.6 ± 4.1", "unit": "%"}]}]}
